These results are taken from patent US9371331B2, “Modulators of methyl modifying enzymes, compositions and uses thereof” (Constellation Pharmaceuticals, Inc., priority 2012, dated 2016).

In test [1] the target is EZH2 (rPRC2) (Homo sapiens, UniProt Q15910). Kind of test: EZH2 assay: rPRC2, biotinylated oligonucleosomes, 3H SAM methyl transfer (FlashPlate scintillation). Type of test: biochemical. The settings on record: biotinylated oligonucleosome substrate.
Test [2] has as its target Y641N EZH2 (Homo sapiens, UniProt Q15910, Y641N). Kind of test: Y641N EZH2 assay: as EZH2 assay, with reconstituted H3K27Me2 oligonucleosomes as substrate. The class given is biochemical.
In test [3] the test system is H3K27me3 mark in HeLa cells. Kind of test: H3K27me3 Alpha Hela Assay (AlphaLISA). The class given is cell-based. Particulars: Homo sapiens, 72 hrs, read-out: H3K27me3_Alpha_HeLa_ (EC50). As to the method: H3K27me3 Alpha Hela Assay (AlphaLISA).
Ten different doses of each test compound (in a series of 3-fold dilutions) were plated in duplicate 384-well tissue culture treated plates (Catalog #781080; Greiner Bio One; Monroe, N.C.). Hela cells grown in culture were trypsinized and counted using a Countess® cell counter (Catalog #C10281; Life Technologies, Grand Island, N.Y.). Cell were diluted to 67,000 cells per mL in 10% DMEM (Catalog #10569-010 Life Technologies. Grand Island, N.Y.) and 15 μL (1,000 cells) were plated into each well using the Biotek MicroFlo™ Select Dispenser (BioTek Instruments. Inc. Vermont, USA),) of the 384-well plate. Plates were incubated at 37° C./5% CO2 for 72 hrs. One of the duplicate plates was processed for HeLa assay and the other for viability.
To the plate processed for AlphaLISA was added 5 μL per well Cell-Histone Lysis buffer (1×) (Catalog #AL009F1 Perkin Elmer; Waltham, Mass.) and the plate was incubated at RT for 30 minutes on a plate shaker with low speed (Model#4625-Q Thermo Scientific; Waltham, Mass.). Then, 10 µL per well Histone Extraction buffer (catalog #AL009F2: Perkin Elmer; Waltham, Mass.) was added and the plate further incubated at RT for 20 min on plate shaker with low speed. To each well was then added 10 μL per well of a 5× mix of anti-K27me3 acceptor beads plus Biotinylated anti-Histone H3 (C-ter) Antibody (diluted to 3 nM final) (Catalog #AL118 Perkin Elmer; Waltham, Mass.). Dilution of the acceptor beads and then anti-Histone H3 was with 1× Histone Detection buffer (Catalog #AL009F3 Perkin Elmer; Waltham, Mass.) which was produced diluted from the 10× stock provided. The plate was sealed with an aluminum plate sealer and incubated at 23° C. for 60 min. We then added 10 μL 5× solution of Streptavidin Donor beads (Catalog #6760002 Perkin Elmer; Waltham, Mass.) (20 μg/mL final in 1× Histone Detection Buffer), sealed the plate with Aluminum plate sealer and incubated at 23° C. for 30 min. The plates were then read using an EnVision-Alpha Reader (model #2104 Perkin Elmer: Waltham, Mass.).
Data from both assays was analyzed using Assay Assistant (Constellation Pharmaceuticals In-house product) and Activity Base (IDBS Ltd. Surrey, UK) template. Data files were imported to Assay Assistant and assay conditions were specified. A unique Analysis ID was created and the data files exported to Activity Base. An analysis template was created on Activity Base to measure dose-dependent inhibition of H3K27me3 mark and cell viability respectively. Readout of DMSO wells were used to normalize the data. Resulting curves were fitted using Activity base software Model 205 (IDBS Ltd, Surrey, UK). The data was checked for quality, validated and integrated in excel format using SARview (IDBS Ltd, Surrey, UK).
Background: Bead proximity is the source of the signal in Alpha formats.

The test system of test [4] is H3K27me3 mark in HeLa cells. As to the kind of experiment: H3K27me3 MSD Hela Assay. The class given is cell-based. The settings on record: read-out: H3K27me3_MSD_HeLa_ (EC50). The method in brief:
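HeLa cells treated with compound at various concentrations for 96 h at 37 °C, then lysed with high-salt extraction. H3K27me3 measured by MSD electrochemiluminescence immunoassay on total-H3 capture plates. Dose-dependent inhibition normalised to DMSO wells and fitted to curves.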

Setting [5] is: EZH2 IC50, wild-type EZH2 (rPRC2).
[6] abbreviates: Y641N EZH2 IC50, Y641N mutant EZH2, H3K27Me2 oligonucleosome substrate.
[7] abbreviates: wild-type EZH2 (rPRC2), read-out: EZH2 IC50.
The mark [8] stands for this setting: Y641N mutant EZH2, H3K27Me2 oligonucleosome substrate, read-out: Y641N EZH2 IC50.

Read-outs that look alike come from different tables or passages of the source.

Sequence of Y641N EZH2 (Q15910 whole entry Y641N): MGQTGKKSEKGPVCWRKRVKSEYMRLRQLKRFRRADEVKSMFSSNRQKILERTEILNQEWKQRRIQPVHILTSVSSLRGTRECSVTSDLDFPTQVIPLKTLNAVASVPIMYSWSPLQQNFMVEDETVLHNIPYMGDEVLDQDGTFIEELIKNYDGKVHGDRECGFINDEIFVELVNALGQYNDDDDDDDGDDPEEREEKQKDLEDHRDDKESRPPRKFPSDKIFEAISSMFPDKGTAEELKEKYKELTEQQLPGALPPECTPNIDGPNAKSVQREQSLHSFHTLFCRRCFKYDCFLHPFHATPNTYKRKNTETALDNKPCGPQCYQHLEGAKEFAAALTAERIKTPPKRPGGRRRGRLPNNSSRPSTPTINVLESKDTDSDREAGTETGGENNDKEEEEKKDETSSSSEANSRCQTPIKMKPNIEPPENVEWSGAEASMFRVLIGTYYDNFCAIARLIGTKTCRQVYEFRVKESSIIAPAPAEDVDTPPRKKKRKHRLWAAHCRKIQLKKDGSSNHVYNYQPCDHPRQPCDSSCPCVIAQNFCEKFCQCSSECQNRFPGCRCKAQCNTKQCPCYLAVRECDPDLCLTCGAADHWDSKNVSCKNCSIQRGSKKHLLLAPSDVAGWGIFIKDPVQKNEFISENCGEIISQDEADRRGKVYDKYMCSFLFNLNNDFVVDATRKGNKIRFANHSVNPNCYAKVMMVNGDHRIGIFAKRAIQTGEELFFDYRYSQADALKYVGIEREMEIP
Sequence of Y641N EZH2 (O75530 whole entry partner): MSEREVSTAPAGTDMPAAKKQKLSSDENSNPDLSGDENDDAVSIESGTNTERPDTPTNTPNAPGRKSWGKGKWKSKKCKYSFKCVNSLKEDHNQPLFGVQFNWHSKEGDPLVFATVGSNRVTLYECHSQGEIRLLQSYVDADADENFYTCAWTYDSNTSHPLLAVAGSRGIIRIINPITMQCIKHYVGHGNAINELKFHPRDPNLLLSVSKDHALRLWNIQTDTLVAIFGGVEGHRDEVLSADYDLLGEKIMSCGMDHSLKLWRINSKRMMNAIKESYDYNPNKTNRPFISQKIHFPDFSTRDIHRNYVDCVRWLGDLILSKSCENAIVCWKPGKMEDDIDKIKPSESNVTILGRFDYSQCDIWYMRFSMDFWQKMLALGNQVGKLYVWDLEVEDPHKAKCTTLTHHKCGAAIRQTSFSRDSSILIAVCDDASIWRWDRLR
Sequence of Y641N EZH2 (Q15022 whole entry partner): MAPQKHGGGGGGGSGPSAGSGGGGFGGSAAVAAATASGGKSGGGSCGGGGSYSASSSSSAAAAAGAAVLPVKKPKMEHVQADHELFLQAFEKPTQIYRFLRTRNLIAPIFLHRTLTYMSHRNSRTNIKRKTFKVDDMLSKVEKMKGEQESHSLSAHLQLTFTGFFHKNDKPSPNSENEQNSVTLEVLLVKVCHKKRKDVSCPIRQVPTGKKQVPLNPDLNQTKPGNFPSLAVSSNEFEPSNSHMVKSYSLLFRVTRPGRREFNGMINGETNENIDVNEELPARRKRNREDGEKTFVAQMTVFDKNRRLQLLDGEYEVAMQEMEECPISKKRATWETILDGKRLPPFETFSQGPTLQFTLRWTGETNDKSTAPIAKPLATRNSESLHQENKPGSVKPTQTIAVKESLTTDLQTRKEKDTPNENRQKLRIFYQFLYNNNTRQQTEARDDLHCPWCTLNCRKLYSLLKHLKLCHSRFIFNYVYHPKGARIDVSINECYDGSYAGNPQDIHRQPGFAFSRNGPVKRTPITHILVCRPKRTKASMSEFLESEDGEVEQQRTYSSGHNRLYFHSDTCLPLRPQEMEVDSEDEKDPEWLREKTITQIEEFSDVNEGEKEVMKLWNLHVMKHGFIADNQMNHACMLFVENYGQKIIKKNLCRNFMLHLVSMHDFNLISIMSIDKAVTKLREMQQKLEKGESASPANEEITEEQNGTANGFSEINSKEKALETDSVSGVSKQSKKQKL
Sequence of EZH2 (rPRC2) (Q15910 whole entry): as the sequence (Q15910 whole entry Y641N) above, with N641Y counted along it
Sequence of EZH2 (rPRC2) (O75530 whole entry partner): as the sequence (O75530 whole entry partner) above
Sequence of EZH2 (rPRC2) (Q15022 whole entry partner): as the sequence (Q15022 whole entry partner) above

Usually IC50 stands for the concentration that gives 50% inhibition. By EC50 is commonly meant the concentration giving half of the maximal effect. Consider `COc1cc(C)[nH]c(=O)c1CNC(=O)c1c(C)n(C(C)C2CCNCC2)c2ncncc12` (racemic) [Compound 333, (±)-N-((4-methoxy-6-methyl-2-oxo-1,2-dihydropyridin-3-yl)methyl)-6-methyl-7-(1-(piperidin-4-yl)ethyl)-7H-pyrrolo[2,3-d]pyrimidine-5-carboxamide], for which the figures for the IC50 in test [1] (setting [5]) and in test [2] (setting [6]) were less than 100 nM and 100 to 1000 nM, respectively. Also, in test [3], the EC50 was 400 to 2000 nM.

`CCC(C)n1c(C)c(C(=O)NCc2c(OC)cc(C)[nH]c2=O)c2ccc(-c3ccc(N4CCNCC4)nc3)cc21` (racemic) [Compound 349, (±)-1-(sec-butyl)-N-((4-methoxy-6-methyl-2-oxo-1,2-dihydropyridin-3-yl)methyl)-2-methyl-6-(6-(piperazin-1-yl)pyridine-3-yl)-1H-indole-3-carboxamide]: the IC50 in test [1] (setting [5]) and in test [2] (setting [6]) was less than 100 nM throughout. Also, the EC50 in test [3] was in the range of 2000 to 10000 nM. Consider `COc1cc(C)[nH]c(=O)c1CNC(=O)c1c(C)n(C(C)C2CCN(S(C)(=O)=O)CC2)c2ccccc12` (single isomer, unassigned) [Compound 336, (R or S)-N-((4-methoxy-6-methyl-2-oxo-1,2-dihydropyridin-3-methyl)-2 methyl-1-(1-(1-(methylsulfonyl)piperidin-4-yl)ethyl)-1 H-indole-3-carboxamide], for which the 50% effective concentration (EC50) in test [3] is less than 400 nM. `COc1cc(C)[nH]c(=O)c1CNC(=O)c1c(C)n(C(C)C2CCN(C(=O)C(C)(C)O)CC2)c2ccccc12` (single isomer, unassigned) [Compound 337, (R or S)-1-(1-(1-(2-hydroxy-2-methylpropanoyl)piperidin-4-yl)ethyl)-N-((4-methoxy-6-methyl-2-oxo-1,2-dihydropyridin-3-yl)methyl)-2-methyl-IH-indole-3-carboxamide]: in test [3], the EC50 is less than 400 nM.

With `COc1cc(C)[nH]c(=O)c1CNC(=O)c1c(C)n(C(C)C2CCN(C3COC3)CC2)c2ccccc12` (single isomer, unassigned) [Compound 341, (R or S)-N-((4-methoxy-6-methyl-2-oxo-1,2dihydropyridin-3-yl)methyl)-2-methyl-1-(1-(1-(oxctan-3-yl)piperidin-4-yl)ethyl)-1 H-indole-3-carboxamide], the EC50 in test [3] was less than 400 nM. Turning to `COc1cc(C)[nH]c(=O)c1CNC(=O)c1c(C)n(C(C)C2CCN(C(=O)C(C)C)CC2)c2ccccc12` (single isomer, unassigned) [Compound 342, (R or S)-1-(1-(1-isobulyrylpiperidin-4-yl)ethyl)-N-((4-methoxy-6-methyl-2-oxo-1,2-dihydropyridin-3-yl)methyl)-2-methyl-1H-indole-3-carboxamide], in test [3], the EC50 is less than 400 nM. On to `Cc1cc(OC(F)F)c(CNC(=O)c2c(C)n(C(C)C3CCN(S(C)(=O)=O)CC3)c3ccccc23)c(=O)[nH]1` (single isomer, unassigned) [Compound 344, (R or S)-N((4-(difluoromethoxy)-6-methyl-2-oxo-1,2-dihydropyridin-3-yl)methyl)-2-methy1-1-(1-(1-(methylsulfonyl)piperidin-4-yl)ethyl)-1H-indole-3-carboxamide], for which the EC50 in test [3] was less than 400 nM.

In the case of `COCCN1CCC(C(C)n2c(C)c(C(=O)NCc3c(OC)cc(C)[nH]c3=O)c3ccccc32)CC1` (single isomer, unassigned) [Compound 359, (R or S)-N-((4-methoxy-6-methyl-2-oxo-1,2-dihysropyridin-3-yl)methyl)-1-(1-(1-(2-methoxyethyl)piperidin-4-yl)ethyl)-2-methyl-1 H-indole-3-carboxamide], the EC50 in test [3] lay in the range of 400 to 2000 nM. On the same count and under the same terms, with `COc1cc(C)[nH]c(=O)c1CNC(=O)c1c(C)n(C(C)C2CCN(CC(F)(F)F)CC2)c2ccccc12` (single isomer, unassigned) [Compound 365, (R or S)-N-((4-methoxy-6-methyl-2-oxo-1,2-dihydropyridin-3-yl)methyl)-2-methyl-1-(1-(1-(2,2,2-trifluoroethyl)piperidin-4-yl)ethyl)-1H-indole-3-carboxamide] the figure was less than 400 nM. The same measure, in the same setting: in the case of `CCc1cc(C)[nH]c(=O)c1CNC(=O)c1c(C)n(C(C)C2CCN(C)CC2)c2ccccc12` (single isomer, unassigned) [Compound 366, (R or S)-N-((4-ethyl-6-methyl-2-oxo-1,2-dihydropyridin-3-yl)methyl)-2-methyl-1-(1-(1-methylpiperidin-4-yl)ethyl-1 H-indole-3-carboxamide] it was 400 to 2000 nM; in that of `Cc1cc(C)c(CNC(=O)c2c(C)n(C(C)C3CCN(C)CC3)c3ccccc23)c(=O)[nH]1` (single isomer, unassigned) [Compound 367, (R or S)-N-((4,6-dimethyl-2-oxo-1,2-dihydropyridin-3-yl)methyl)-2-methyl-1-(1-(1-methylpiperidin-4-yl)ethyl)-1 H-indole-3-carboxamide], less than 400 nM; in that of `CCS(=O)(=O)N1CCC(C(C)n2c(C)c(C(=O)NCc3c(C)cc(C)[nH]c3=O)c3ccccc32)CC1` (single isomer, unassigned) [Compound 368, (R or S)-N-(4,6-dimethyl-2-oxo-1,2-dihydropyridin-3-yl)methyl)-1-(1-(1-(ethylsulfonyl)piperidin-4-yl)ethyl)-2-methyl-1 H-indole-3-carboxamide], less than 400 nM. For the molecule `Cc1cc(C)c(CNC(=O)c2c(C)n(C(C)C3CCN(C4COC4)CC3)c3ccccc23)c(=O)[nH]1` (single isomer, unassigned) [Compound 375, (R or S)-N-((4,6-dimethyl-2-oxo-1,2-dihydropyridin-3-yl)methyl)-2-methyl-1-(1-(1-(oxctan-3-yl)piperidin-4-yl)ethyl)-1 H-indole-3-carboxamide], the EC50 in test [3] was less than 400 nM. Take `COc1cc(C)[nH]c(=O)c1CNC(=O)c1c(C)n(C(C)C2CCCN(S(C)(=O)=O)C2)c2ccccc12` (centres unmarked) [Compound 318]: the EC50 in test [4] (Homo sapiens, HeLa, 96 h) is more than 10000 nM. Besides, the IC50 in test [1] (setting [5]) and in test [2] (setting [6]) was less than 100 nM throughout.

As for `COc1cc(C)[nH]c(=O)c1CNC(=O)c1c(C)n(C2CCCC2)c2ccccc12` [Compound 324, 1-cyclopentyl-N-((4-methoxy-6-methyl-2-oxo-1,2-dihydropyridin-3-yl)methyl)-2-methyl-1H-indole-3-carboxamide], the EC50 in test [4] (Homo sapiens, HeLa, 96 h) was in the range of 2000 to 10000 nM. In addition, the IC50 is less than 100 nM in test [1] (setting [5]) and 100 to 1000 nM in test [2] (setting [6]). The corresponding values for `Cc1cc(C)c(CNC(=O)c2c(C)n([C@H](C)c3ccccc3)c3ncncc23)c(O)n1` [Compound 395, (R)—N-((2-hydroxy-4,6-dimethylpyridin-3-yl)methyl)-6-methyl-7-(1-phenylethyl)-7H-pyrrolo[2,3-d]pyrimidine-5-carboxamide] are 2000 to 10000 nM, less than 100 nM and 100 to 1000 nM. “(±)-1-(1-(3-cyanophenyl)ethyl)-N-(4,6-dimethyl-2-oxo-1,2-dihydropyridin-3-yl)-2-methyl-1H-indole-3-carboxamide [Compound 175]”: the EC50 in test [4] (HeLa cells, MSD, 96 hours) was in the range of 400 to 2000 nM. For the same molecule, the IC50 in test [1] (setting [7]) and in test [2] (setting [8]) was less than 100 nM in each case. In the case of “N-((4-methoxy-6-methyl-2-oxo-1,2-dihydropyridin-3-yl)methyl)-2-methyl-1-(1-(1-(methylsulfonyl)piperidin-3-yl)ethyl)-1H-indole-3-carboxamide [Compound 320]”, the EC50 in test [4] (HeLa cells, MSD, 96 hours) was in the range of 400 to 2000 nM. In addition, the IC50 in test [1] (setting [7]) and in test [2] (setting [8]) was less than 100 nM each time.
